{"source": "patent US10501516B2", "about": "“Peptide compound” (TAKEDA PHARMACEUTICAL COMPANY LIMITED, priority 2016, dated 2019)", "key": {"human GLP-1R": {"biological_target": "T1, human GLP-1R (Homo sapiens, UniProt P43220)", "T1 construct": "expressed in transfected cells; host or cells: CHO-K1 Cre-luc reporter cells (hGLP-1R/Crel cells)", "T1 sequence (P43220 24-463)": "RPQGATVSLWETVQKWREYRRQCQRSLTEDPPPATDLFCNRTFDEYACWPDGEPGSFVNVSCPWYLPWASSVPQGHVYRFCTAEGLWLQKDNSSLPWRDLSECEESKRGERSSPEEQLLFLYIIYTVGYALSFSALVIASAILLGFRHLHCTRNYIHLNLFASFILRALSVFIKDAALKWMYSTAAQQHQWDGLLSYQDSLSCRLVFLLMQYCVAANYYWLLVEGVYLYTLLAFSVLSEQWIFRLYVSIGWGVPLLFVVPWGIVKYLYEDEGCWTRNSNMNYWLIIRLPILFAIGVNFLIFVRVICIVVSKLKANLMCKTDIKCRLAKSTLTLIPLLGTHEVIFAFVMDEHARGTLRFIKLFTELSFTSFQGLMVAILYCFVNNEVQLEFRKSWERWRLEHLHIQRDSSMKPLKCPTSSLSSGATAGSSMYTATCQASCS", "assay": "Reporter assay of human GLP-1R gene (agonist activity, intracellular cAMP as index)", "assay_type": "cell-based", "details": "Cre-luc reporter, hGLP-1R/Crel cells (CHO-K1), 4 hours", "excerpt": "(§1) Evaluation of Agonist Activity Against Human NPY2R, Human GIPR, and Human GLP-1R Using Change in Intracellular cAMP Concentration as Index\nThe human GLP-1R gene having a sequence identical to the sequence of GenBank Accession No. NM_002062 was cloned into pIRESneo3 vector (Clontech Laboratories, Inc.) to prepare hGLP-1R/pIRESneo3. This vector was introduced to the Cre-luc reporter cells obtained in (1) to obtain transformants. Next, a cell line induced to express luciferase, i.e., hGLP-1R/Crel cells, were selected from the obtained transformants by the addition of human GLP-1(7-37) peptide.\nThe hGIPR/CRE-LUC/CHO-K1 cells or the hGLP-1R/Crel cells were inoculated at a cell density of 25 μL/well (5,000 cells/well) to a 384-well white plate (Corning, 3570), and cultured overnight in Ham F12 medium containing 10% fetal bovine serum, 100 U/mL penicillin and 100 μg/mL streptomycin in a CO2 incubator of 37° C. On the next day, a medium containing a test compound was added at a concentration of 5 μL/well to the cells, and the resultant cells were incubated for 4 hours in a CO2 incubator of 37° C. to give the final concentration of 1 μM. SteadyGlo (Promega) was added thereto at a concentration of 30 μL/well, and the mixture was shaken with light shielded. After 30 minutes, the luciferase activity was measured using a plate reader Envision (PerkinElmer). For the GIPR agonist activity, the luciferase activity in the presence of 10 μM GIP was defined as 100%, and the luciferase activity from the addition of DMSO instead of the test compound was defined as 0%. The GIPR agonist activity was calculated with a rise in intracellular cAMP concentration as an index.\nFor the GLP-1R agonist activity, assay similar to above was conducted using the hGLP-1R/Crel cells. The luciferase activity in the presence of 10 μM GLP-1 was defined as 100%, and the luciferase activity from the addition of DMSO instead of the test compound was defined as 0%. The GLP-1R agonist activity was calculated with a rise in intracellular cAMP concentration as an index."}, "human GIPR": {"biological_target": "T2, human GIPR (Homo sapiens, UniProt P48546)", "T2 construct": "expressed in transfected cells; host or cells: CHO-K1 Cre-luc reporter cells (hGIPR/CHO-K1, also called hGIPR/CRE-LUC/CHO-K1)", "T2 sequence (P48546 22-466)": "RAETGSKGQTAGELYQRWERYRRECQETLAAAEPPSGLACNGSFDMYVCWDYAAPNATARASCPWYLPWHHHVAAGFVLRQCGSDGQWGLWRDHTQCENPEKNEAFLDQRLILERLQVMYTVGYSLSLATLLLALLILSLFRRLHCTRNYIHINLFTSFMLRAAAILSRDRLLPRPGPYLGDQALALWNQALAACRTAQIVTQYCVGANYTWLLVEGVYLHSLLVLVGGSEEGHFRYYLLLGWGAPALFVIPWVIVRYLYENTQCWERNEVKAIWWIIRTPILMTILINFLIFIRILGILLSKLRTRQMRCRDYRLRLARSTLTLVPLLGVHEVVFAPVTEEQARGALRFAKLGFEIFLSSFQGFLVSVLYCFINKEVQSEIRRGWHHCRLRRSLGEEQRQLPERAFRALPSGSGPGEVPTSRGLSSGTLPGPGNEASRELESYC", "assay": "Reporter assay of human GIPR gene (agonist activity, intracellular cAMP as index)", "assay_type": "cell-based", "details": "Cre-luc reporter, hGIPR/CHO-K1 cells, 4 hours"}, "human NPY2R": {"biological_target": "T3, human NPY2R (Homo sapiens, UniProt P49146)", "T3 construct": "expressed in transfected cells; host or cells: CHO-K1 Cre-luc reporter cells (pAKKO1114/hNPY2R#481 No. 88 cells)", "T3 sequence (P49146 1-381)": "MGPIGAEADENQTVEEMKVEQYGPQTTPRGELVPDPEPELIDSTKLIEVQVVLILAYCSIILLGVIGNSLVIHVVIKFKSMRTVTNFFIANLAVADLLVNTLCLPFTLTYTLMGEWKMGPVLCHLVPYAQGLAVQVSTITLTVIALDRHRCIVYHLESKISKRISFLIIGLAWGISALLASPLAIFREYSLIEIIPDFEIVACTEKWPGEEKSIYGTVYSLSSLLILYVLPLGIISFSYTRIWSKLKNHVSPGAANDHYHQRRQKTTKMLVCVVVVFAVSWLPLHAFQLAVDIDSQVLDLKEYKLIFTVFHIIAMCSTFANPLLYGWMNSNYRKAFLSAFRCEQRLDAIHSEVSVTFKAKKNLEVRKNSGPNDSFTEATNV", "assay": "Reporter assay of human NPY2R gene (agonist activity, decrease in intracellular cAMP as index)", "assay_type": "cell-based", "details": "Cre-luc reporter, hNPY2R CHO-K1 cells, forskolin 1.2 μM, 4 hours; read-out: Agonist activity (EC50) hY2R", "excerpt": "as §1\nThe human NPY2R gene having a sequence identical to the sequence of GenBank Accession No. AC104407 was cloned into pAKKO1114 vector to prepare hNPY2R/pAKKO1114. Next, pGL4.29 (Promega) was introduced to CHO-K1 cells, which were then screened with hygromycin to construct Cre-luc reporter cells. These cells were cotransfected with hNPY2R/pAKKO1114 and pcDNA3.1 (Life Technologies Corp.), and the cells were screened with geneticin. Next, a cell line induced to express luciferase, i.e., pAKKO1114/hNPY2R#481 No. 88 cells, were selected from the obtained transformants by the addition of human PYY (3-36).\nThe pAKKO1114/hNPY2R#481 No. 88 cells were inoculated at a cell density of 25 μL/well (5,000 cells/well) to a 384-well white plate (Corning, 3570), and cultured overnight in Ham F12 medium containing 10% fetal bovine serum, 100 U/mL penicillin and 100 μg/mL streptomycin in a CO2 incubator of 37° C. On the next day, the medium was removed, and an assay medium (Ham F12 medium containing 0.1% BSA, 100 U/mL penicillin and 100 μg/mL streptomycin) containing forskolin (final concentration: 1.2 μM) was added at a concentration of 25 μL/well to the cells. Next, an assay medium containing a test compound was added at a concentration of 5 μL/well to the cells, and the resultant cells were incubated for 4 hours in a CO2 incubator of 37° C. to give the final concentration of 1 μM. SteadyGlo (Promega) was added thereto at a concentration of 30 μL/well, and the mixture was left standing for 20 minutes with light shielded. The luciferase activity was measured using a plate reader Envision (PerkinElmer). The luciferase activity from the addition of DMSO was defined as 100%, and the luciferase activity from the addition of 1 μM human PYY(3-36) instead of the test compound was defined as 0%. The NPY2R agonist activity was calculated with a decrease in intracellular cAMP concentration as an index."}, "Male C57BL/6J mice": {"test_system": "Male C57BL/6J mice", "assay": "Conditioned taste aversion (CTA) test", "assay_type": "in vivo, mouse", "details": "10 nmol/kg s.c.", "method": "Male C57BL/6J (9 weeks old) mice were habituated to time-restricted bottled water supply (2-3 hours/day) and subcutaneous injection of saline for 1 week. Mice were divided into the groups based on the data of body weight and water intake. CTA test was performed according to the following protocol. On day 1 for the first conditioning, mice were given 0.1% sodium saccharin solution to drink for 3 hours. Ten-minutes after supplying the saccharin solution, vehicles, liraglutides and P41 were administered subcutaneously. […] On day 2, mice were given tap water for 3 hours and subcutaneous injection of saline after water supply. On day 3, the second conditioning was conducted as the same procedure used on day 1. On day 4, mice were given tap water for 3 hours without subcutaneous injection. On day 5, both tap water and saccharin solution were supplied to mice for 3 hours without subcutaneous injection and the intake of each fluid was measured. Saccharin preference ratio (%) was calculated according to the following equation: {(amount of saccharin intake)/(amount of saccharin intake+amount of water intake)}×100."}}, "note": "Square brackets hold non-standard residues; d marks the D form. Side chains are listed from the residue outwards. Peptide text beside a SMILES is read from it. * marks the point of attachment. C18 diacid = O=C(O)CCCCCCCCCCCCCCCCC(=O)*; NMeY = CN[C@@H](Cc1ccc(O)cc1)C(=O)O; αMeF = C[C@](N)(Cc1ccccc1)C(=O)O; Iva = CC[C@](C)(N)C(=O)O; Aib = CC(C)(N)C(=O)O"}
{"molecule": "CC[C@H](C)[C@H](NC(=O)[C@H](CO)NC(=O)[C@H](CCCCNC(=O)CNC(=O)CNC(=O)CNC(=O)CNC(=O)CCCCCCCCCCCCCCCCC(=O)O)NC(=O)[C@H](CC(=O)O)NC(=O)[C@H](CO)NC(=O)[C@@H](NC(=O)[C@](C)(Cc1ccccc1)NC(=O)[C@@H](NC(=O)CNC(=O)[C@H](CCC(=O)O)NC(=O)C(C)(C)NC(=O)[C@H](Cc1ccc(O)cc1)NC)[C@@H](C)O)[C@@H](C)O)C(=O)NC(C)(C)C(=O)N[C@@H](CC(C)C)C(=O)N[C@@H](CCC(=O)O)C(=O)N[C@@H](CCCCN)C(=O)N[C@@H](CCC(N)=O)C(=O)N[C@@H](CCCNC(=N)N)C(=O)N[C@@H](CCC(N)=O)C(=O)N[C@@](C)(CC)C(=O)N[C@@H](CCC(=O)O)C(=O)N[C@@H](Cc1ccccc1)C(=O)N[C@H](C(=O)N[C@@H](CCCNC(=N)N)C(=O)N[C@@H](Cc1c[nH]cn1)C(=O)N[C@@H](CC(C)C)C(=O)N[C@@H](CC(C)C)C(=O)N[C@@H](CC(N)=O)C(=O)N[C@@H](CCCCN)C(=O)NC(C)(C)C(=O)N[C@H](C(=O)N[C@@H](CCCNC(=N)N)C(=O)N[C@@H](CCC(N)=O)C(=O)N[C@@H](CCCNC(=N)N)C(=O)N[C@@H](Cc1ccc(O)cc1)C(N)=O)[C@@H](C)O)C(C)C", "note": "[Example 42] (H-[NMeY][Aib]EGT[αMeF]TSDK([Gly-Gly-Gly-Gly-C18 diacid])SI[Aib]LEKQRQ[Iva]EFVRHLLNK[Aib]TRQRY-NH2)", "values": [{"measurement": "EC50", "setting": "human GLP-1R", "value": 1.3, "unit": "nM"}, {"measurement": "EC50", "setting": "human GIPR", "value": 0.25, "unit": "nM"}, {"measurement": "EC50", "setting": "human NPY2R", "value": 2.6, "unit": "nM"}]}
{"molecule": "CCCCCCCCCCCCCCCC(=O)N[C@@H](CCC(=O)NCCCC[C@H](NC(=O)[C@H](C)NC(=O)[C@H](C)NC(=O)[C@H](CCC(N)=O)NC(=O)CNC(=O)[C@H](CCC(=O)O)NC(=O)[C@H](CC(C)C)NC(=O)[C@H](Cc1ccc(O)cc1)NC(=O)[C@H](CO)NC(=O)[C@H](CO)NC(=O)[C@@H](NC(=O)[C@H](CC(=O)O)NC(=O)[C@H](CO)NC(=O)[C@@H](NC(=O)[C@H](Cc1ccccc1)NC(=O)[C@@H](NC(=O)CNC(=O)[C@H](CCC(=O)O)NC(=O)[C@H](C)NC(=O)[C@@H](N)Cc1cnc[nH]1)[C@@H](C)O)[C@@H](C)O)C(C)C)C(=O)N[C@@H](CCC(=O)O)C(=O)N[C@@H](Cc1ccccc1)C(=O)N[C@H](C(=O)N[C@@H](C)C(=O)N[C@@H](Cc1c[nH]c2ccccc12)C(=O)N[C@@H](CC(C)C)C(=O)N[C@H](C(=O)N[C@@H](CCCNC(=N)N)C(=O)NCC(=O)N[C@@H](CCCNC(=N)N)C(=O)NCC(=O)O)C(C)C)[C@@H](C)CC)C(=O)O", "note": "[Liraglutide, liraglutide, reference compound]", "values": [{"measurement": "induction of conditioned taste aversion (emetic effects)", "setting": "Male C57BL/6J mice", "value": "significantly decreased saccharin preference ratio"}]}
